# Test system: A498
# Test: Cell culture and GI50 determination (resazurin)
# Type: cell-based
# Details: Homo sapiens, A498, 48h incubation
# Method: MDA-MB-231 (breast cancer) and KM12 (colon cancer) cells obtained from the UZH Cancer Institute, HOP-92 (lung cancer) cells purchased from the National Cancer Institute (NCl) and A498 (kidney cancer) cells obtained from Prof. Krek (Institute of Cell Biology, ETH Zurich) were cultured in Dulbecco's modified Eagle's medium (DMEM) supplemented with 10% (v/v) fetal bovine serum. K562 leukemia cells obtained from Dr. Silvio Hemmi (Institute of Molecular Life Sciences, UZH) were cultured using RPMI medium supplemented with 5% (v/v) fetal bovine serum. All the media was additionally supplemented with 100 units/mL of penicillin, 100µg/mL of streptomycin, 4.5 g/L glucose, 0.11g/L sodium pyrubate and 2mM glutamine and the cells were grown at 37 °C in 5% CO2 atmosphere with 80% relative humidity.
# MDA-MB-231, HT-29, KM12, HOP-92 and A498 cells were plated at 10,000 cells per well (100 µL per well) in 96-well culture dishes and allowed to incubate for 24 h. The old media was removed, the cells were washed with PBS (phosphate-buffered saline) and fresh media was added. A 5 mmol/L solution of inhibitor (in 100% DMSO) was serially diluted in the culture media (12 different concentrations were used) and allowed to incubate for 72 h (MDA-MB-231) or 48h (A498). Control cells were treated with the same DMSO concentrations. After the incubation period the media was once more removed and the cells were washed with PBS to then be incubated with fresh media containing 86 nmol/L resazurin. After 3 hours, the fluorescence was quantified using a fluorescence microplate reader (Biotek, FLx800™) at the respective excitation and emission wavelength of 560 and 590 nm. Resazurin becomes fluorescent under mitochondrial reduction and its emission directly correlates with the metabolic stability of the cells. The measured fluorescence values were corrected from the control samples containing DMSO and GI50 values were determined by plotting the fraction of metabolically active cells against the log of the drug concentration. All measurements were performed at least in triplicate.
smiles,measurement,value
"COc1ccc(C)c(-n2c(N)c(C(N)=O)c3nc4ccccc4nc32)c1 [Compound 8, 2-Amino-1-(5-methoxy-2-methylphenyl)-1H-pyrrolo[2,3-b]quinoxaline-3-carboxamide, reference compound]",GI50,59.3 µM
